Test results from PMC2894482 (Journal of medicinal chemistry, 2009).

Columns and labels:
rat mGluR5 = rat mGluR5 (Rattus norvegicus, UniProt P31424); test: Calcium fluorescence assay; type: cell-based
mGluR5 [1] = target: T1, mGluR5 (Rattus norvegicus, UniProt P31424); test: mGluR5 radioligand binding with [3H]1, rat brain membranes
[2] = tested on: cocaine self-administration; settings: cited from earlier work
rats = test: Preliminary in vivo testing in rats; settings: personal communication with Dr. S. Barak Caine
mGluR5 [3] = target: T1, mGluR5; type: binding; settings: alkyne 11 vs similarly substituted amide 34

T1 sequence (P31424 21-1203): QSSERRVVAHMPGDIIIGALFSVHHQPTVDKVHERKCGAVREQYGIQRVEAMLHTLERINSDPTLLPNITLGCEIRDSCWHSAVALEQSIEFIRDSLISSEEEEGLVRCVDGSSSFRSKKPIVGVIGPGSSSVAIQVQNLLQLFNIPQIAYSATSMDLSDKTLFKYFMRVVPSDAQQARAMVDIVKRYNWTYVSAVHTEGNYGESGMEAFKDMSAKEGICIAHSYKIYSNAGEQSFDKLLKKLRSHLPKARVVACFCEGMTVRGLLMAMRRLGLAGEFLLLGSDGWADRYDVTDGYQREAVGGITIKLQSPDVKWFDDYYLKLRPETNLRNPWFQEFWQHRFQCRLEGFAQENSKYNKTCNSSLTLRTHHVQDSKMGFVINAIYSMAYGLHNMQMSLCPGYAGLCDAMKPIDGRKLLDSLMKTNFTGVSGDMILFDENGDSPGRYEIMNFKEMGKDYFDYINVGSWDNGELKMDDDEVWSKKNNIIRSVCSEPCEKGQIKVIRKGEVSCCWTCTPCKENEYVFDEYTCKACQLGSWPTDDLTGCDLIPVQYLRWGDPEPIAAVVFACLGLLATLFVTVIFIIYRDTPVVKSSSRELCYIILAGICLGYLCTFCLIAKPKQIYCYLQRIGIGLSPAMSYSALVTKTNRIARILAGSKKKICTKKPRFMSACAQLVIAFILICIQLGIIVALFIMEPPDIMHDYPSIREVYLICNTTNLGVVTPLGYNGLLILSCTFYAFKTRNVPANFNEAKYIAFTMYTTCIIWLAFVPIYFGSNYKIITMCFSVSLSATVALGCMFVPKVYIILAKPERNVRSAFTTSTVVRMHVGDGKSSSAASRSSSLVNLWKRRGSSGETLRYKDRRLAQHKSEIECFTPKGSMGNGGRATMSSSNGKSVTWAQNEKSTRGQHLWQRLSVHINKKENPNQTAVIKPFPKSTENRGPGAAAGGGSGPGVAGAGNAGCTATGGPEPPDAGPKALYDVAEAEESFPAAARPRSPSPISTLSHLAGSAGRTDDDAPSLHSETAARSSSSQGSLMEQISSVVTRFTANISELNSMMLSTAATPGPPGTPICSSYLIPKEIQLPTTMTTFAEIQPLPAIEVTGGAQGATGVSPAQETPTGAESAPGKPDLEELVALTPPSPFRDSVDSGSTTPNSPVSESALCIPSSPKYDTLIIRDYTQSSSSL
Sequence of rat mGluR5 (P31424 21-1203): as above

IC50 (rat mGluR5) [nM] | Ki (mGluR5 [1]) [nM] | SMILES | also measured
3.08 ± 0.61 | 4 ± 0.6 | Cc1cccc(C#Cc2ccc(-c3ccccc3)c(C#N)c2)n1 [Compound 21, 2-Phenyl-5-(6-methylpyridin-2-ylethynyl)benzonitrile] | 
 |  | Cc1cccc(C#Cc2ccccc2)n1 [Compound 1, 2-methyl-6-(phenylethynyl)pyridine] | effect on cocaine self-administration [2]: dose-dependently decreases; effect on food intake ([2]; identical schedules of reinforcement): no effect
6.1 ± 1.95 | 17 ± 2.2 | Cc1cccc(C#Cc2ccc(-c3cccc(F)c3)c(C#N)c2)n1 [Compound 22, 2-(3-Fluorophenyl)-5-(6-methylpyridin-2-ylethynyl)benzonitrile] | 
 |  | Cc1nc(C#Cc2cc(F)cc(C#N)c2)cs1 [Compound 11, 3-Fluoro-5-cyano-1-(2-methylthiazol-4-ylethynyl)benzene] | toxicity in preliminary in vivo testing (rats): showed toxicity; fold higher affinity at mGluR5 than the amide (mGluR5 [3]): > 70 fold
